Reference: PMC5104426, “Screening a Phage Display Library for Two Novel OmpU-Binding Peptides with Adhesion Antagonistic Activity against Vibrio mimicus” (PLoS ONE, 2016)

System: V. mimicus 04–14 isolate
Experiment: Protective effects on grass carps challenged with V. mimicus
Format: in vivo, Vibrio mimicus
Settings: for Mortality rate / Survival rate: n = 10, 7 days; for No. of dead fish post challenge, 2d: n = 10, day 2; for No. of dead fish post challenge, 3d: n = 10, day 3; for No. of dead fish post challenge, 4d: n = 10, day 4; for No. of dead fish post challenge, 5d: n = 10, day 5; for No. of dead fish post challenge, 6d: n = 10, day 6; for No. of dead fish post challenge, 7d: n = 10, day 7; for No. of dead fish: n = 10, total over 7 days; for No. of dead fish post challenge, 1d: n = 10, day 1
Method: Healthy grass carps weighting 50–52 g were purchased from a commercial fish farm in Anhui province of China, and then were maintained in a flow-through water system at a temperature of 25 ± 1°C and fed commercial pellets on a daily basis. After 14 days when grass carps were confirmed to be healthy, the water temperature was increased to 28 ± 1°C slowly, and the experiment began.
The experimental grass carps were randomly divided into 9 groups (named A-I group, n = 10 in each group). Groups A-C were injected intraperitoneally with P1 at a dose of 10 mg/kg/d, 20 mg/kg/d and 30 mg/kg/d, respectively; Groups D-F were given the same dosages of P2, respectively; Group G was given with 30 mg/kg/d of unrelated control peptide. After 3 days of continuous peptides injection, each fish in groups A-G was challenged intraperitoneally with 200 μL PBS containing 6 × 10^6 cells of V.mimicus 04–14 isolate (equal to the minimal lethal dose determined by preliminary test), respectively. Group H (infection control group) was only inoculated with 04–14 isolate at the minimal lethal dose; Group I (negative control group) was only inoculated with 0.65% sterile saline. Survival of the fish was monitored every 12 h for 7 days post-challenge. At the end of the 7 day observation period, all surviving fish were euthanized in a solution of 200 mg/L of MS-222 followed by a blow to the head.
The survival experiment was performed in accordance with the practices reported in recent studies on antibacterial efficacy of peptides in vivo, protective efficacy of vaccine and bacterial virulence. Death was used as an endpoint in these studies (with no indication of use of humane euthanasia). In animal toxicity and efficacy assays of the adhesion antagonistic peptides, we used death as the endpoint as early, reliable and unbiased biomarkers that can be used as indicators of disease severity are lacking. There is difficulty in reliably differentiating fish that will die from those which will recover, despite showing clinical signs precluding use of humane euthanasia. In addition, interpretation of clinical signs can itself be subjective in the absence of quantifiable indicators of disease severity. For these reasons, the ethical committee of Anhui Agricultural University has assessed the possibility of deaths in the animal toxicity and efficacy assays and also allowed probably unavoidable animal deaths.

[1] = 10 mg/kg/d i.p. for 3 days before challenge
[2] = 10 mg/kg/d i.p. for 3 days before i.p. challenge with 6 × 10^6 cells
[3] = 20 mg/kg/d i.p. for 3 days before challenge
[4] = 30 mg/kg/d i.p. for 3 days before challenge

Sequence | Mortality rate [1] [%] | Survival rate [1] [%] | No. of dead fish post challenge, 2d [1] | No. of dead fish post challenge, 3d [1] | No. of dead fish post challenge, 4d [1] | No. of dead fish post challenge, 5d [1] | No. of dead fish post challenge, 6d [1] | No. of dead fish post challenge, 7d [1] | No. of dead fish [1] | No. of dead fish post challenge, 1d [2] | Mortality rate [3] [%] | Survival rate [3] [%] | No. of dead fish post challenge, 1d [3] | No. of dead fish post challenge, 2d [3] | No. of dead fish post challenge, 3d [3] | No. of dead fish post challenge, 4d [3] | No. of dead fish post challenge, 5d [3] | No. of dead fish post challenge, 6d [3] | No. of dead fish post challenge, 7d [3] | No. of dead fish [3] | also measured
SCTSPHCFMWLP [P2, adhesion antagonistic peptide] | 80 | 20 | 4 | 3 | 1 | 0 | 0 | 0 | 8 | 0 | 60 | 40 | 0 | 2 | 3 | 1 | 0 | 0 | 0 | 6 | Mortality rate [4]: 40%; Survival rate [4]: 60%; No. of dead fish post challenge, 1d [4]: 0; No. of dead fish post challenge, 2d [4]: 2; No. of dead fish post challenge, 3d [4]: 2; No. of dead fish post challenge, 4d [4]: 0; No. of dead fish post challenge, 5d [4]: 0; No. of dead fish post challenge, 6d [4]: 0; No. of dead fish post challenge, 7d [4]: 0; No. of dead fish [4]: 4
TWTCSDVICTAR [P1, adhesion antagonistic peptide] | 90 | 10 | 5 | 2 | 2 | 0 | 0 | 0 | 9 | 0 | 80 | 20 | 0 | 4 | 2 | 2 | 0 | 0 | 0 | 8 | Mortality rate [4]: 60%; Survival rate [4]: 40%; No. of dead fish post challenge, 1d [4]: 0; No. of dead fish post challenge, 2d [4]: 2; No. of dead fish post challenge, 3d [4]: 3; No. of dead fish post challenge, 4d [4]: 1; No. of dead fish post challenge, 5d [4]: 0; No. of dead fish post challenge, 6d [4]: 0; No. of dead fish post challenge, 7d [4]: 0; No. of dead fish [4]: 6
